From ChEMBL document CHEMBL1146058, “Discovery of trans-3,4'-bispyridinylethylenes as potent and novel inhibitors of protein kinase B (PKB/Akt) for the treatment of cancer: Synthesis and biological evaluation” (Bioorg Med Chem Lett, 2006)

Tests used:
[1] = Half life in mouse at 30 mg/kg; format: ADME, organism-based; set-up: dose 30 mg/kg; conditions: in vivo
[2] = Volume of distribution in mouse at 30 mg/kg; format: ADME, organism-based; set-up: dose 30 mg/kg; conditions: in vivo, read-out: Vdss
[3] = Plasma clearance in mouse at 30 mg/kg; format: ADME, organism-based; set-up: dose 30 mg/kg
[4] = Cmax in mouse at 30 mg/kg; format: ADME, organism-based; set-up: dose 30 mg/kg; conditions: in vivo
[5] = Oral bioavailability in mouse at 30 mg/kg; format: ADME, organism-based; conditions: in vivo
[6] = Half life in dog at 2.5 mg/kg; format: ADME, organism-based, Canis lupus familiaris; set-up: dose 2.5 mg/kg; conditions: in vivo
[7] = Volume of distribution in dog at 2.5 mg/kg; format: ADME, organism-based, Canis lupus familiaris; set-up: dose 2.5 mg/kg; conditions: in vivo, read-out: Vdss
[8] = Plasma clearance in dog at 2.5 mg/kg; format: ADME, organism-based, Canis lupus familiaris; set-up: dose 2.5 mg/kg
[9] = Cmax in dog at 2.5 mg/kg; format: ADME, organism-based, Canis lupus familiaris; set-up: dose 2.5 mg/kg; conditions: in vivo
[10] = Oral bioavailability in dog at 2.5 mg/kg; format: ADME, organism-based, Canis lupus familiaris; conditions: in vivo
[11] = Half life in monkey at 2.5 mg/kg; format: ADME, organism-based, Macaca mulatta; set-up: dose 2.5 mg/kg; conditions: rhesus monkey, in vivo
[12] = Volume of distribution in monkey at 2.5 mg/kg; format: ADME, organism-based, Macaca mulatta; set-up: dose 2.5 mg/kg; conditions: rhesus monkey, in vivo, read-out: Vdss
[13] = Plasma clearance in monkey at 2.5 mg/kg; format: ADME, organism-based, Macaca mulatta; set-up: dose 2.5 mg/kg; conditions: rhesus monkey
[14] = Cmax in monkey at 2.5 mg/kg; format: ADME, organism-based, Macaca mulatta; set-up: dose 2.5 mg/kg; conditions: rhesus monkey, in vivo
MIA PaCa-2 = test: Antiproliferative activity against MiaPaCa-2 cells by MTT assay; format: functional, cell-based; conditions: Homo sapiens
[15] = Oral bioavailability in monkey at 2.5 mg/kg; format: ADME, organism-based, Macaca mulatta; conditions: rhesus monkey, in vivo
[16] = Half life in rat at 5 mg/kg; format: ADME, organism-based; set-up: dose 5 mg/kg; conditions: in vivo
[17] = Volume of distribution in rat at 5 mg/kg; format: ADME, organism-based; set-up: dose 5 mg/kg; conditions: in vivo, read-out: Vdss
[18] = Plasma clearance in rat at 5 mg/kg; format: ADME, organism-based; set-up: dose 5 mg/kg
[19] = Cmax in rat at 5 mg/kg; format: ADME, organism-based; set-up: dose 5 mg/kg; conditions: in vivo
[20] = Oral bioavailability in rat at 5 mg/kg; format: ADME, organism-based; conditions: in vivo
[21] = target: T1, RAC-alpha serine/threonine-protein kinase (Homo sapiens, UniProt P31749); test: Inhibition of Akt1 at 5.33 uM
T1 sequence (P31749 whole entry): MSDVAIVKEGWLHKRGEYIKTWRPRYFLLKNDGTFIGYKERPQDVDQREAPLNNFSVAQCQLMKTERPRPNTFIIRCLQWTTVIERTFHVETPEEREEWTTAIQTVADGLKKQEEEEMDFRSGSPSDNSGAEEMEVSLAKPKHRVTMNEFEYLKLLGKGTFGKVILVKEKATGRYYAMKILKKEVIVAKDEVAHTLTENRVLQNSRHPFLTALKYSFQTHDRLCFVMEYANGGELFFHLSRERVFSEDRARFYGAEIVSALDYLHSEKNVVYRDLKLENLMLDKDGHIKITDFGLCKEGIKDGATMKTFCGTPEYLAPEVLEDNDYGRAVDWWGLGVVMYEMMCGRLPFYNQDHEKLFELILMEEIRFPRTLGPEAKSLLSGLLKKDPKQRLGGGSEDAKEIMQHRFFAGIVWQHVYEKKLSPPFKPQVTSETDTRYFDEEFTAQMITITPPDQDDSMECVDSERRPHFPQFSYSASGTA

[22] = Cmax in mouse at 10 mg/kg; format: ADME, organism-based; set-up: dose 10 mg/kg; conditions: in vivo
[23] = Oral bioavailability in mouse at 10 mg/kg; format: ADME, organism-based; conditions: in vivo
[24] = Half life in mouse at 10 mg/kg; format: ADME, organism-based; set-up: dose 10 mg/kg; conditions: in vivo
[25] = Volume of distribution in mouse at 10 mg/kg; format: ADME, organism-based; set-up: dose 10 mg/kg; conditions: in vivo, read-out: Vdss
[26] = Plasma clearance in mouse at 10 mg/kg; format: ADME, organism-based; set-up: dose 10 mg/kg
[27] = target: T1, RAC-alpha serine/threonine-protein kinase; test: Inhibition of Akt1 using 10 uM ATP
[28] = target: T1, RAC-alpha serine/threonine-protein kinase; test: Inhibition of Akt1 at 50 uM
[29] = target: T1, RAC-alpha serine/threonine-protein kinase; test: Inhibition of Akt1 at 0.99 uM

Work on N[C@H](COc1cncc(/C=C/c2ccncc2)c1)Cc1c[nH]c2ccccc12 yielded a half-life [1] of 0.8 h, a Vd [2] of 6.5 L/kg and a clearance [3] of 95 mL/min/kg. For the same compound, the Cmax [4] was 2780 ng/mL, the bioavailability [5] was 39% and the half-life [6] was 3.2 h. The Vd [7] was 12.8 L/kg, the clearance [8] was 41.7 mL/min/kg and the Cmax [9] was 100 ng/mL. For the same compound, the bioavailability [10] was 52%, the half-life [11] was 3.7 h and the Vd [12] was 9.1 L/kg. For the same compound, the clearance [13] was 26.7 mL/min/kg, the Cmax [14] was 40 ng/mL and the IC50 (MIA PaCa-2) was 12 µM. The bioavailability [15] was 12%, the half-life [16] was 3.1 h and the Vd [17] was 5.2 L/kg. It also gave a clearance [18] of 20 mL/min/kg, a Cmax [19] of 300 ng/mL and a bioavailability [20] of 21%.

Compound N[C@H](COc1cncc(/C=C/c2ccncc2)c1)C(=O)O has an inhibition [21] of 11%.

For N[C@H](COc1cnc(Cl)c(/C=C/c2ccncc2)c1)Cc1c[nH]c2ccccc12, the half-life [1] was 0.8 h, the Vd [2] was 4.8 L/kg and the clearance [3] was 68.3 mL/min/kg. It also gave a Cmax [4] of 940 ng/mL, a bioavailability [5] of 11% and a half-life [6] of 5.4 h. The Vd [7] was 11.1 L/kg, the clearance [8] was 23.3 mL/min/kg and the Cmax [9] was 120 ng/mL. For the same compound, the bioavailability [10] was 45%, the half-life [11] was 3 h and the Vd [12] was 4.2 L/kg. It also gave a clearance [13] of 16.2 mL/min/kg, a Cmax [14] of 60 ng/mL and a bioavailability [15] of 12%. It also gave a half-life [16] of 3.1 h, a Vd [17] of 9.9 L/kg and a clearance [18] of 36.7 mL/min/kg. It also gave a Cmax [19] of 60 ng/mL and a bioavailability [20] of 17%.

For N[C@H](CCc1cnc(Cl)c(/C=C/c2ccncc2)c1)Cc1c[nH]c2ccccc12, the Cmax [22] was 90 ng/mL, the bioavailability [23] was less than 10% and the half-life [24] was 0.2 h. The Vd [25] was 4.9 L/kg and the clearance [26] was 288 mL/min/kg.

C(=C\c1cncc(OCCCc2c[nH]c3ccccc23)c1)/c1ccncc1 gave an IC50 [27] greater than 50 µM.

N[C@H](COc1cnccc1/C=C/c1ccncc1)Cc1ccccc1 gave an inhibition [28] of 29%.

Work on N[C@H](COc1cccc(/C=C/c2ccncc2)c1)Cc1c[nH]c2ccccc12 yielded an inhibition [21] of 35%.

With N[C@H](COc1cncc(/C=C/c2ccncc2)c1)Cc1csc2ccccc12 the half-life [16] was 2.5 h, the Vd [17] was 3.6 L/kg and the clearance [18] was 16.7 mL/min/kg. The Cmax [19] was 620 ng/mL and the bioavailability [20] was 43%.

Compound N[C@@H](Cc1c[nH]cn1)C(=O)Nc1cncc(/C=C/c2ccncc2)c1 has an inhibition [29] of 73%.

N[C@H](COc1cc(/C=C/c2ccncc2)ccn1)Cc1c[nH]c2ccccc12 gave an inhibition [21] of 16%.

Work on N[C@H](CNc1cnc(Cl)c(/C=C/c2ccncc2)c1)Cc1c[nH]c2ccccc12 yielded a Cmax [22] of less than 20 ng/mL, a bioavailability [23] of 0% and a half-life [24] of 0.6 h. It also gave a Vd [25] of 9.5 L/kg and a clearance [26] of 190 mL/min/kg.

For N[C@H](COc1cncc(/C=C/c2ccccc2)c1)Cc1c[nH]c2ccccc12, the inhibition [21] was 17%.

Work on N[C@H](COc1cncc(/C=C/c2ccncc2)c1)C(=O)Nc1ccc2ccccc2c1 yielded an inhibition [21] of 4%.
